# Results taken from patent publication US7179645B2 (priority 2002, dated 2007).
# Read-outs that look alike come from different tables or passages of the source. [ ]: non-standard residue; d: D form. ava = not defined here
# Legend:
# [1] = system: C3H/HeJ mice (H-2^k); antibodies against the PGCC(95–104) epitope peptide; conditions: mouse, in vivo
# [2] = system: C3H/HeJ mice (H-2^k); antibodies against the PGCC(95–104) epitope peptide; conditions: mouse, in vivo; remark: listed apart in the source
# SJL/J (H-2s) mice = conditions: mouse, in vivo; cited from earlier work
# mice = conditions: mouse, in vivo; cited from earlier work
substance,measurement,setting,value
Ac-LRMK-ava-IAYLKQATAK-NH2 (Ac-LRMK[ava]IAYLKQATAK-NH2; reading uncertain; also: printed as Ac-LRMK-ava-IAYLKQATAK-NH2) [Ii-Key/PGCC],"Antibody induction (ELISA), Dilution^−1 1620",[1],0.071
same,"Antibody induction (ELISA), Dilution^−1 4860",[1],0.024
same,antibody titers against PGCC epitope,[1],Significantly greater antibody titers
same,antibody titers against PGCC epitope,[2],Significantly greater antibody titers
HCLGKWLGHPDKFVGI [PL139–154],mice with severe clinical and histological EAE,SJL/J (H-2s) mice,3 of 20
MOG35–55,"encephalitogenic potential (specific T-cell responses, EAE)",mice,induced specific T-cell responses and EAE
